Like-named read-outs stand apart in the source and are kept apart here.
Assays:
[1] = tested on: spontaneously hypertensive rats (SHR); assay: Antihypertensive activity (blood pressure after oral administration); type: in vivo; conditions: for inhibition in vivo at 200 mg/kg / inhibition in vivo at 100 mg/kg / inhibition in vivo at 10 mg/kg / inhibition in vivo at 30 mg/kg: Rattus norvegicus, decrease vs before; for inhibition in vivo at 200 mg/kg / Blood pressure 2 hrs / Blood pressure 4 hrs / Blood pressure 6 hrs / inhibition in vivo at 100 mg/kg / inhibition in vivo at 10 mg/kg / inhibition in vivo at 30 mg/kg: SHR; for Blood pressure 2 hrs: 2 hrs after administration; for Blood pressure 2 hrs / Blood pressure 4 hrs / Blood pressure 6 hrs: mean ± S.E.; for Blood pressure 4 hrs: 4 hrs after administration; for Blood pressure 6 hrs: 6 hrs after administration
Procedure: The test compounds, which were dissolved or suspended in 0.5% C.M.C. aqueous solution, were orally administered to groups of 3 or 4 spontaneously hypertensive rats (SHR), weighing about 300 to 400 g. Blood pressure was measured before and 2, 4 and 6 hours after the administration.

[2] = in vivo
[3] = in vivo; conditions: mouse, oral, in 0.5% C.M.C., ddY male mice, death rate for 7 days
[4] = oral 200 mg/kg, 2 hrs, read-out: Blood pressure 2 hrs [Decrease]
[5] = oral 200 mg/kg, 4 hrs, read-out: Blood pressure 4 hrs [Decrease]
[6] = oral 200 mg/kg, 6 hrs, read-out: Blood pressure 6 hrs [Decrease]
[7] = oral 100 mg/kg, 2 hrs, read-out: Blood pressure 2 hrs [Decrease]
[8] = oral 100 mg/kg, 4 hrs, read-out: Blood pressure 4 hrs [Decrease]
[9] = oral 100 mg/kg, 6 hrs, read-out: Blood pressure 6 hrs [Decrease]
[10] = oral 10 mg/kg, 2 hrs, read-out: Blood pressure 2 hrs [Decrease]
[11] = oral 10 mg/kg, 4 hrs, read-out: Blood pressure 4 hrs [Decrease]
[12] = oral 10 mg/kg, 6 hrs, read-out: Blood pressure 6 hrs [Decrease]
[13] = oral 30 mg/kg, 2 hrs, read-out: Blood pressure 2 hrs [Decrease]
[14] = oral 30 mg/kg, 4 hrs, read-out: Blood pressure 4 hrs [Decrease]
[15] = oral 30 mg/kg, 6 hrs, read-out: Blood pressure 6 hrs [Decrease]

Compound: Nc1ncnc2c1ncn2[C@@H]1O[C@H](CO)[C@@H](O)[C@H]1O [Adenosine, adenosine]
- inhibition in vivo at 200 mg/kg [1, 4]: -6.1%
- inhibition in vivo at 200 mg/kg [1, 5]: 1.8%
- inhibition in vivo at 200 mg/kg [1, 6]: -3.2%
- Blood pressure 2 hrs ([1]; oral 200 mg/kg): 202 ± 12 mmHg
- Blood pressure 4 hrs ([1]; oral 200 mg/kg): 187 ± 3 mmHg
- Blood pressure 6 hrs ([1]; oral 200 mg/kg): 198 ± 4 mmHg
- hypotensive effect (in words) ([1]; oral administration): does not decrease blood pressure
- bradycardia (side effect) [2]: Bradycardia was observed

Compound: CO[C@@H]1[C@H](O)[C@@H](CO)O[C@H]1n1cnc2c(N)ncnc21 [Compound 1, 2'-O-methyladenosine]
- LD50 at 168 h [3]: > 2000 mg/kg
- inhibition in vivo at 200 mg/kg [1, 4]: 53.2%
- inhibition in vivo at 200 mg/kg [1, 5]: 45.8%
- inhibition in vivo at 200 mg/kg [1, 6]: 42.8%
- Blood pressure 2 hrs ([1]; oral 200 mg/kg): 103 ± 21 mmHg
- Blood pressure 4 hrs ([1]; oral 200 mg/kg): 121 ± 32 mmHg
- Blood pressure 6 hrs ([1]; oral 200 mg/kg): 128 ± 41 mmHg

Compound: CO[C@H]1[C@@H](O)[C@H](n2cnc3c(N)ncnc32)O[C@@H]1CO [Compound 2, 3'-O-methyladenosine]
- LD50 at 168 h [3]: > 2000 mg/kg
- inhibition in vivo at 200 mg/kg [1, 4]: 41.2%
- inhibition in vivo at 200 mg/kg [1, 5]: 29%
- inhibition in vivo at 200 mg/kg [1, 6]: 27.2%
- Blood pressure 2 hrs ([1]; oral 200 mg/kg): 135 ± 28 mmHg
- Blood pressure 4 hrs ([1]; oral 200 mg/kg): 163 ± 40 mmHg
- Blood pressure 6 hrs ([1]; oral 200 mg/kg): 167 ± 47 mmHg

Compound: CCO[C@@H]1[C@H](O)[C@@H](CO)O[C@H]1n1cnc2c(N)ncnc21 [Compound 3, 2'-O-ethyladenosine]
- LD50 at 168 h [3]: 750 to 1000 mg/kg
- inhibition in vivo at 100 mg/kg [1, 7]: 52.2%
- inhibition in vivo at 100 mg/kg [1, 8]: 49.5%
- inhibition in vivo at 100 mg/kg [1, 9]: 47.3%
- Blood pressure 2 hrs ([1]; oral 100 mg/kg): 102 ± 15 mmHg
- Blood pressure 4 hrs ([1]; oral 100 mg/kg): 106 ± 20 mmHg
- Blood pressure 6 hrs ([1]; oral 100 mg/kg): 111 ± 26 mmHg

Compound: CO[C@@H]1[C@H](O)[C@@H](CO)O[C@H]1n1cnc2c(N)nc(C)nc21 [Compound 5, 2,2'-O-dimethyladenosine]
- LD50 at 168 h [3]: 540 mg/kg
- inhibition in vivo at 10 mg/kg [1, 10]: 40.2%
- inhibition in vivo at 10 mg/kg [1, 11]: 26.5%
- inhibition in vivo at 10 mg/kg [1, 12]: 12.7%
- Blood pressure 2 hrs ([1]; oral 10 mg/kg): 131 ± 6 mmHg
- Blood pressure 4 hrs ([1]; oral 10 mg/kg): 161 ± 11 mmHg
- Blood pressure 6 hrs ([1]; oral 10 mg/kg): 193 ± 24 mmHg

Compound: CCO[C@@H]1[C@H](O)[C@@H](CO)O[C@H]1n1cnc2c(N)nc(C)nc21 [Compound 9, 2-methyl-2'-O-ethyladenosine]
- LD50 at 168 h [3]: 500 to 1000 mg/kg
- inhibition in vivo at 30 mg/kg [1, 13]: 23.6%
- inhibition in vivo at 30 mg/kg [1, 14]: 10.7%
- inhibition in vivo at 30 mg/kg [1, 15]: 13.5%
- Blood pressure 2 hrs ([1]; oral 30 mg/kg): 169 ± 7 mmHg
- Blood pressure 4 hrs ([1]; oral 30 mg/kg): 197 ± 5 mmHg
- Blood pressure 6 hrs ([1]; oral 30 mg/kg): 191 ± 9 mmHg

Compound: COC[C@H]1O[C@@H](n2cnc3c(N)ncnc32)[C@H](O)[C@@H]1O [Compound 11, 5'-O-methyladenosine]
- LD50 at 168 h [3]: 800 mg/kg
- inhibition in vivo at 30 mg/kg [1, 13]: 18.2%
- inhibition in vivo at 30 mg/kg [1, 14]: 5.9%
- inhibition in vivo at 30 mg/kg [1, 15]: 6.6%
- Blood pressure 2 hrs ([1]; oral 30 mg/kg): 189 ± 3 mmHg
- Blood pressure 4 hrs ([1]; oral 30 mg/kg): 206 ± 10 mmHg
- Blood pressure 6 hrs ([1]; oral 30 mg/kg): 204 ± 9 mmHg

Compound: COC[C@H]1O[C@@H](n2cnc3c(N)nc(C)nc32)[C@H](O)[C@@H]1O [Compound 15, 2,5'-O-dimethyladenosine]
- LD50 at 168 h [3]: 500 to 1000 mg/kg
- inhibition in vivo at 10 mg/kg [1, 10]: 35.2%
- inhibition in vivo at 10 mg/kg [1, 11]: 17.7%
- inhibition in vivo at 10 mg/kg [1, 12]: 9.1%
- Blood pressure 2 hrs ([1]; oral 10 mg/kg): 154 ± 13 mmHg
- Blood pressure 4 hrs ([1]; oral 10 mg/kg): 195 ± 22 mmHg
- Blood pressure 6 hrs ([1]; oral 10 mg/kg): 215 ± 5 mmHg

Compound: CNc1ncnc2c1ncn2[C@@H]1O[C@H](CO)[C@@H](O)[C@H]1OC [Compound 17, N^6-2'-O-dimethyladenosine]
- inhibition in vivo at 30 mg/kg [1, 13]: 17.1%
- inhibition in vivo at 30 mg/kg [1, 14]: 11.7%
- inhibition in vivo at 30 mg/kg [1, 15]: 14.1%
- Blood pressure 2 hrs ([1]; oral 30 mg/kg): 192 ± 15 mmHg
- Blood pressure 4 hrs ([1]; oral 30 mg/kg): 204 ± 5 mmHg
- Blood pressure 6 hrs ([1]; oral 30 mg/kg): 199 ± 8 mmHg

Compound: CNc1ncnc2c1ncn2[C@@H]1O[C@H](COC)[C@@H](O)[C@H]1O [Compound 19, N^6-5'-O-dimethyladenosine]
- LD50 at 168 h [3]: 1300 mg/kg
- inhibition in vivo at 30 mg/kg [1, 13]: 43%
- inhibition in vivo at 30 mg/kg [1, 14]: 27.1%
- inhibition in vivo at 30 mg/kg [1, 15]: 26.3%
- Blood pressure 2 hrs ([1]; oral 30 mg/kg): 122 ± 8 mmHg
- Blood pressure 4 hrs ([1]; oral 30 mg/kg): 155 ± 7 mmHg
- Blood pressure 6 hrs ([1]; oral 30 mg/kg): 157 ± 12 mmHg

Compound: CNc1nc(C)nc2c1ncn2[C@@H]1O[C@H](CO)[C@@H](O)[C@H]1OC [Compound 21, 2,N^6,2'-O-trimethyladenosine]
- LD50 at 168 h [3]: ~400 mg/kg
- inhibition in vivo at 30 mg/kg [1, 13]: 23.9%
- inhibition in vivo at 30 mg/kg [1, 14]: 16.9%
- inhibition in vivo at 30 mg/kg [1, 15]: 10.8%
- Blood pressure 2 hrs ([1]; oral 30 mg/kg): 159 ± 20 mmHg
- Blood pressure 4 hrs ([1]; oral 30 mg/kg): 172 ± 7 mmHg
- Blood pressure 6 hrs ([1]; oral 30 mg/kg): 188 ± 8 mmHg

Compound: CCO[C@@H]1[C@H](O)[C@@H](CO)O[C@H]1n1cnc2c(NC)nc(C)nc21 [Compound 22, 2,N^6-dimethyl-2'-O-ethyladenosine]
- LD50 at 168 h [3]: ~400 mg/kg
- inhibition in vivo at 10 mg/kg [1, 10]: 25.8%
- inhibition in vivo at 10 mg/kg [1, 11]: 18.8%
- inhibition in vivo at 10 mg/kg [1, 12]: 13.1%
- Blood pressure 2 hrs ([1]; oral 10 mg/kg): 168 ± 6 mmHg
- Blood pressure 4 hrs ([1]; oral 10 mg/kg): 185 ± 7 mmHg
- Blood pressure 6 hrs ([1]; oral 10 mg/kg): 197 ± 3 mmHg

Compound: CNc1nc(C)nc2c1ncn2[C@@H]1O[C@H](COC)[C@@H](O)[C@H]1O [Compound 24, 2,N^6,5'-O-trimethyladenosine]
- LD50 at 168 h [3]: 1320 mg/kg
- inhibition in vivo at 10 mg/kg [1, 10]: 43.3%
- inhibition in vivo at 10 mg/kg [1, 11]: 27%
- inhibition in vivo at 10 mg/kg [1, 12]: 23%
- Blood pressure 2 hrs ([1]; oral 10 mg/kg): 128 ± 7 mmHg
- Blood pressure 4 hrs ([1]; oral 10 mg/kg): 165 ± 7 mmHg
- Blood pressure 6 hrs ([1]; oral 10 mg/kg): 174 ± 4 mmHg

Compound: CO[C@@H]1[C@H](O)[C@@H](CO)O[C@H]1n1cnc2c(N)nc(Cl)nc21 [Compound 27, 2-chloro-2'-O-methyladenosine]
- LD50 at 168 h [3]: ~400 mg/kg
- inhibition in vivo at 100 mg/kg [1, 7]: 68.4%
- inhibition in vivo at 100 mg/kg [1, 8]: 64.8%
- inhibition in vivo at 100 mg/kg [1, 9]: 66.9%
- Blood pressure 2 hrs ([1]; oral 100 mg/kg): 70 ± 10 mmHg
- Blood pressure 4 hrs ([1]; oral 100 mg/kg): 78 ± 8 mmHg
- Blood pressure 6 hrs ([1]; oral 100 mg/kg): 73 ± 16 mmHg

Compound: CO[C@@H]1[C@H](O)[C@@H](CO)O[C@H]1n1cnc2c(N)nc(F)nc21 [Compound 29, 2-fluoro-2'-O-methyladenosine]
- LD50 at 168 h [3]: > 2000 mg/kg
- inhibition in vivo at 30 mg/kg [1, 13]: 45.9%
- inhibition in vivo at 30 mg/kg [1, 14]: 19.8%
- inhibition in vivo at 30 mg/kg [1, 15]: 16.4%
- Blood pressure 2 hrs ([1]; oral 30 mg/kg): 131 ± 4 mmHg
- Blood pressure 4 hrs ([1]; oral 30 mg/kg): 195 ± 5 mmHg
- Blood pressure 6 hrs ([1]; oral 30 mg/kg): 204 ± 3 mmHg

— patent publication US4843066A, “Novel adenosine derivatives and pharmaceutical composition containing them as an active ingredient” (priority 1986, dated 1989)
